Laboratory results: publication PMC5916021 (Chemical Science, 2018)
Where two headings read alike, the source gives them in different places.

How the values were obtained:
CK2α [1] = target: T1, CK2α (Homo sapiens, UniProt P68400); conditions: for Enthalpy / Entropy: ITC; for LE (ligand efficiency): LE = ΔG/[number of heavy atoms]
CK2α [2] = target: T1, CK2α
CK2α [3] = target: T1, CK2α; remark: listed apart in the source
HCT116 cells [4] = conditions: from the functional (IC50) to the cellular assay (GI50)
[5] = system: AKT1 serine 129 phosphorylation in HCT116 cells; conditions: 2 × GI50 (20 μM), 72 hours
panel of 140 kinases = conditions: 30 μM (4 × IC50)
HCT116 cells [6] = experiment: cells; conditions: Homo sapiens, HCT-116, 72 h
physchem = conditions: kinase assay conditions
CK2α [7] = target: T1, CK2α; experiment: biochemical; conditions: for inhibition at 10 µM: read-out: Inhibition @10 μM; for inhibition at 500 µM: read-out: Inhibition of the kinase activity @ 500 μM
CAMK1 = CAMK1 (Homo sapiens, UniProt Q14012); experiment: biochemical; conditions: read-out: inhibition of CAMK1
Sequence of CAMK1 (Q14012 whole entry): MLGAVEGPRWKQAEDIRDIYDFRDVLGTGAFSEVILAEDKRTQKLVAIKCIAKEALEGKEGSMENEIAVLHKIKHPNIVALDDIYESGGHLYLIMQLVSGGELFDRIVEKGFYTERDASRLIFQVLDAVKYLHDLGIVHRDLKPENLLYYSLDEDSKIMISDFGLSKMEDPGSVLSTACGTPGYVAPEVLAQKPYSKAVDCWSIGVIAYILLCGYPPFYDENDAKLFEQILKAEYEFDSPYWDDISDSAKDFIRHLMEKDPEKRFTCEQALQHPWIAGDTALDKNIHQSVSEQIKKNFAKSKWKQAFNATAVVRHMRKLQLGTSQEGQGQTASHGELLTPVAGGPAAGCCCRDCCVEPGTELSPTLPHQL

SmMLCK = SmMLCK (Homo sapiens, UniProt Q15746); experiment: biochemical; conditions: read-out: inhibition of SmMLCK
Sequence of SmMLCK (Q15746 923-1914): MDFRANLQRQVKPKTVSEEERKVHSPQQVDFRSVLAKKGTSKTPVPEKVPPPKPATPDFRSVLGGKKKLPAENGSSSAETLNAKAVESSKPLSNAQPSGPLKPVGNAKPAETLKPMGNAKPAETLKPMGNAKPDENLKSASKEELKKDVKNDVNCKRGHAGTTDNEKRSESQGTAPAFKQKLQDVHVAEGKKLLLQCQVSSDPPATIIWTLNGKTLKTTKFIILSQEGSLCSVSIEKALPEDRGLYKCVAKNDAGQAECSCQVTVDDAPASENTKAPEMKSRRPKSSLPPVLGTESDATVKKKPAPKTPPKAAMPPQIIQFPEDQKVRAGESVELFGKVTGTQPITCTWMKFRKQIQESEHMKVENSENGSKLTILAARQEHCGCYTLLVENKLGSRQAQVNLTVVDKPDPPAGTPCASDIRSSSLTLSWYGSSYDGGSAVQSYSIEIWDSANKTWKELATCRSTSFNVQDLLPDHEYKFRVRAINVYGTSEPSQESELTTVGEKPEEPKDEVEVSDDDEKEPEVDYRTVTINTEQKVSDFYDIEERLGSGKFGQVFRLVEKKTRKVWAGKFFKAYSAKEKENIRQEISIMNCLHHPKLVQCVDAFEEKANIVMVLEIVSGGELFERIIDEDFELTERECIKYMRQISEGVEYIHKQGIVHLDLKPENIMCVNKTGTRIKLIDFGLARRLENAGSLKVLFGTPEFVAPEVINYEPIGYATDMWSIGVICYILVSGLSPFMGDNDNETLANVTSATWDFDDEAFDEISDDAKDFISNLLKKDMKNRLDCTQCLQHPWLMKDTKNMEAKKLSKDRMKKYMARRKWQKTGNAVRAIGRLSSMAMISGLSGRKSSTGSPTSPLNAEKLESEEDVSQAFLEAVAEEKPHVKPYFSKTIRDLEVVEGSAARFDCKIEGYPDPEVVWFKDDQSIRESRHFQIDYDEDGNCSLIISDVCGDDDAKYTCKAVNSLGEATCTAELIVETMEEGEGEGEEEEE

EF2K = EF2K (Homo sapiens, UniProt O00418); experiment: biochemical; conditions: read-out: inhibition of EF2K
Sequence of EF2K (O00418 whole entry): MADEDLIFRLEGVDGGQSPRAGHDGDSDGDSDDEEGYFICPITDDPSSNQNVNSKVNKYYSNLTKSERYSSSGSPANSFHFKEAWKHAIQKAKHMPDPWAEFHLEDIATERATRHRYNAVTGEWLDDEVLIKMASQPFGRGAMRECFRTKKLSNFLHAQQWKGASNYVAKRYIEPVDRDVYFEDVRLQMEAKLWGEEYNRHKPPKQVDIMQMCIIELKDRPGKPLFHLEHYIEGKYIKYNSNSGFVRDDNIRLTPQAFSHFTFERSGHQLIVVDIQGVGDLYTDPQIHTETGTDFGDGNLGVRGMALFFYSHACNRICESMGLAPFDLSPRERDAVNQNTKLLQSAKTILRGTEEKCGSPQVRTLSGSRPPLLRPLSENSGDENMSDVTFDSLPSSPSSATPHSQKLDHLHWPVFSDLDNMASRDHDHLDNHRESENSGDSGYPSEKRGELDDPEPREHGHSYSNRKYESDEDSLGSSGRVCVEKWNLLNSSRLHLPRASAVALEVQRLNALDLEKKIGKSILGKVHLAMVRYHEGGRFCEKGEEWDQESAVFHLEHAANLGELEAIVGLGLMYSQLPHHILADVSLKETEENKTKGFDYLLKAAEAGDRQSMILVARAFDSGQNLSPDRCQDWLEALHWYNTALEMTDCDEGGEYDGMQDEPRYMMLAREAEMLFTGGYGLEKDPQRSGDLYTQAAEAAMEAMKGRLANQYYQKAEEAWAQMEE

SGK1 = SGK1 (Homo sapiens, UniProt O00141); experiment: biochemical; conditions: read-out: inhibition of SGK1
Sequence of SGK1 (O00141 whole entry, species assumed): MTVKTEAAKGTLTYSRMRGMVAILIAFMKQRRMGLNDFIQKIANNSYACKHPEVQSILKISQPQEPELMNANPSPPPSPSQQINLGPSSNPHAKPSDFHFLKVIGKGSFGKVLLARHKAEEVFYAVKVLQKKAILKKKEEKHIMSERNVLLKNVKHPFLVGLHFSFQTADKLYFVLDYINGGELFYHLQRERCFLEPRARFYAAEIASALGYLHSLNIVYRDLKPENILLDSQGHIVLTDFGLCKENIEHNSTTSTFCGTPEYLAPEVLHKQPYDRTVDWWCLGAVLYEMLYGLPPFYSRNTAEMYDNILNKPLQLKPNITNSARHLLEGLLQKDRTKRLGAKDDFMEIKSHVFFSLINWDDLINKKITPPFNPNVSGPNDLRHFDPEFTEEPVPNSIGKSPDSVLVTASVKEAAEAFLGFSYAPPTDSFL

CK2 = conditions: read-out: IC50 against CK2; cited from earlier work
kinases = conditions: cited from earlier work; for number of kinases with > 70% inhibition: at 0.5 µM

T1 sequence (P68400 2-329): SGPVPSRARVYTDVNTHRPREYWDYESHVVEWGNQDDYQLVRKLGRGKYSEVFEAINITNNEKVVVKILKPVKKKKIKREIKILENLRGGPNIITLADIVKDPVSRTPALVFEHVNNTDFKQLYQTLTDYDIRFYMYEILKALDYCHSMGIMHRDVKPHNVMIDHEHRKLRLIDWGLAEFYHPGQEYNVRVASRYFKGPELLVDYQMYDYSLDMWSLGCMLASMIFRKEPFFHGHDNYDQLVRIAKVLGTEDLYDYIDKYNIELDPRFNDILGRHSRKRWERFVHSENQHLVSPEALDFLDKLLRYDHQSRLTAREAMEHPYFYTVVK

## CCc1ccccc1-c1c(Cl)cc(CNCCc2nc3ccccc3[nH]2)cc1Cl [CAM4712]
CK2α [1]
  Enthalpy: -4.09 kcal/mol
  Entropy: 9.46 cal/mol/deg
CK2α [2]; 20 μM CAM4712
  Inhibition of binding of compound 37 (Lys68 probe) to CK2α: not inhibited
CK2α [2]; CAM4712 in competition with 15
  Enthalpy: -3.42 kcal/mol
CK2α [2]; CAM4712 in competition with CAM4066
  Enthalpy: -11.71 kcal/mol
CK2α [2]; CAM4712 in competition with CX4945
  Enthalpy: -5.9 kcal/mol
CK2α [3]
  decrease in potency compared to CAM4066: 10 fold
HCT116 cells [4]
  Drop in potency: No
[5]
  inhibition of the phosphorylation of Ser129 of Akt1: good inhibition
Panel of 140 kinases
  number of kinases inhibited for more than 50%: 4
other
  solubility for ITC: not soluble enough for ITC
  solubility in water: moderate solubility
HCT116 cells [6]
  GI50: 10 ± 3.6 µM
physchem
  solubility: ≤ 50 µM
CK2α [7]
  inhibition at 10 µM: 80%
CAMK1
  inhibition at 30 µM: > 50%
SmMLCK
  inhibition at 30 µM: > 50%
EF2K
  inhibition at 30 µM: > 50%
SGK1
  inhibition at 30 µM: > 50%

## O=C(O)c1ccc2c(c1)nc(Nc1cccc(Cl)c1)c1ccncc12 [CX4945]
HCT116 cells [6]
  GI50: 11.3 ± 1.2 µM
CK2
  IC50: […]
kinases; ref 2 (H. Kim et al., PLoS One, 2014)
  number of kinases with > 70% inhibition: 26
kinases
  number of other kinases inhibited with nanomolar affinity: 12

## O=C(O)c1ccc2c(c1)nc(Nc1cccc(C(F)(F)F)c1)c1nc(NC3CC3)ncc12 [CX5279]
kinases; ref 5 (R. Battistutta et al., Biochemistry, 2011)
  number of kinases with > 70% inhibition: 4

## Cc1ccccc1-c1ccc(CN)cc1Cl.Cl [Compound 2]
CK2α [1]
  Enthalpy: -5.054 kcal/mol
  Entropy: 3.11 cal/mol/deg
  LE (ligand efficiency): 0.38

## CC(C)c1ccccc1-c1ccc(CN)cc1Cl.Cl [Compound 4]
CK2α [1]
  Enthalpy: -1.846 kcal/mol
  Entropy: -23.2 cal/mol/deg
  LE (ligand efficiency): 0.29

## COc1ccccc1-c1ccc(CN)cc1Cl.Cl [Compound 5]
CK2α [1]
  Enthalpy: -1.184 kcal/mol
  Entropy: -23.2 cal/mol/deg
  LE (ligand efficiency): 0.30

## NCc1ccc(-c2ccccc2F)c(Cl)c1 [Compound 6]
CK2α [1]
  Enthalpy: -1.253 kcal/mol
  Entropy: -25.4 cal/mol/deg
  LE (ligand efficiency): 0.32

## Cl.NCc1ccc(-c2ccccc2O)c(Cl)c1 [Compound 7]
CK2α [1]
  Enthalpy: -5.671 kcal/mol
  Entropy: -3.34 cal/mol/deg
  LE (ligand efficiency): 0.30

## Cc1cc(F)ccc1-c1ccc(CN)cc1Cl.Cl [Compound 11]
CK2α [1]
  Enthalpy: -6.977 kcal/mol
  Entropy: -5.21 cal/mol/deg
  LE (ligand efficiency): 0.33

## Cl.NCc1ccc(-c2cccc3ccccc23)c(Cl)c1 [Compound 12]
CK2α [1]
  Enthalpy: -8.425 kcal/mol
  Entropy: -11 cal/mol/deg
  LE (ligand efficiency): 0.27

## Cl.NCc1cc(Cl)c(-c2ccccc2)c(Cl)c1 [Compound 14]
CK2α [1]
  Enthalpy: -3.333 kcal/mol
  Entropy: 9.78 cal/mol/deg
  LE (ligand efficiency): 0.43

## CCc1ccccc1-c1c(Cl)cc(CN)cc1Cl.O=C(O)C(F)(F)F [Compound 15]
CK2α [1]
  Enthalpy: -6.361 kcal/mol
  Entropy: 11.8 cal/mol/deg
  LE (ligand efficiency): 0.41

## Clc1cc(CNCc2ccccc2)ccc1-c1ccccc1 [Compound 16]
CK2α [7]
  inhibition at 500 µM: 54%

## Clc1cc(CNCCc2ccccc2)ccc1-c1ccccc1 [Compound 17]
CK2α [7]
  inhibition at 500 µM: 42%

## Clc1cc(CNCCCc2ccccc2)ccc1-c1ccccc1 [Compound 18]
CK2α [7]
  inhibition at 500 µM: 40%

## Clc1cc(CNCc2ccc[nH]2)ccc1-c1ccccc1 [Compound 19]
CK2α [7]
  inhibition at 500 µM: 52%

## Clc1cc(CNCCc2cnc[nH]2)ccc1-c1ccccc1 [Compound 20]
CK2α [7]
  inhibition at 500 µM: 50%

## CCc1ccccc1-c1ccc(CNCCc2nc3ccccc3[nH]2)cc1Cl [Compound 23]
[5]
  inhibition of the phosphorylation of Ser129 of Akt1: good inhibition
HCT116 cells [6]
  GI50: 10 µM
physchem
  solubility: ≤ 50 µM

## CCc1ccccc1-c1ccc(CNCCc2nc3cccc(C)c3[nH]2)cc1Cl [Compound 24]
CK2α [7]
  inhibition at 10 µM: 45%

## CCc1ccccc1-c1ccc(CNCCc2nc3cccc([N+](=O)[O-])c3[nH]2)cc1Cl [Compound 25]
CK2α [7]
  inhibition at 10 µM: 50%

## CCc1ccccc1-c1ccc(CNCCc2nc3cccc(OC)c3[nH]2)cc1Cl.Cl [Compound 26]
[5]
  inhibition of the phosphorylation of Ser129 of Akt1: good inhibition
HCT116 cells [6]
  GI50: 11 µM
physchem
  solubility: ≤ 50 µM
CK2α [7]
  inhibition at 10 µM: 52%

## CCc1ccccc1-c1ccc(CNCCc2nc3ccc(C)cc3[nH]2)cc1Cl [Compound 27]
CK2α [7]
  inhibition at 10 µM: 38%

## CCc1ccccc1-c1ccc(CNCCc2nc3ccc([N+](=O)[O-])cc3[nH]2)cc1Cl [Compound 28]
CK2α [7]
  inhibition at 10 µM: 36%

## CCc1ccccc1-c1ccc(CNCCc2nc3ccc(OC)cc3[nH]2)cc1Cl.Cl [Compound 29]
HCT116 cells [6]
  GI50: 11 µM
physchem
  solubility: ≤ 50 µM
CK2α [7]
  inhibition at 10 µM: 64%

## CCc1ccccc1-c1ccc(CNCCc2nc3ccc(Cl)cc3[nH]2)cc1Cl [Compound 30]
CK2α [7]
  inhibition at 10 µM: 50%

## CCc1ccccc1-c1ccc(CNCCc2nc3ccccc3[nH]2)cc1C [Compound 31]
CK2α [7]
  inhibition at 10 µM: 30%

## CCc1ccccc1-c1ccc(CNCCc2nc3ccccc3[nH]2)cc1C(F)(F)F [Compound 32]
CK2α [7]
  inhibition at 10 µM: 23%

## CCc1ccccc1-c1ccc(CNCCc2nc3ccccc3[nH]2)cc1OC [Compound 33]
CK2α [7]
  inhibition at 10 µM: 41%

## CCc1ccccc1-c1ccc(CNCCc2nc3ccccc3[nH]2)cc1OC(F)(F)F [Compound 34]
CK2α [7]
  inhibition at 10 µM: 39%

## CCc1ccccc1-c1c(Cl)cc(CNCCc2nc3cccc(OC)c3[nH]2)cc1Cl [Compound 35]
CK2α [7]
  inhibition at 10 µM: 47%

## CCc1ccccc1-c1c(Cl)cc(CNCCc2nc3ccc(OC)cc3[nH]2)cc1Cl [Compound 36]
CK2α [7]
  inhibition at 10 µM: 46%
